# Measured values taken from US10590078B2, “Sodium channel blockers” (Daewoong Pharmaceutical Co., Ltd., priority 2015, dated 2020).
# Target: human sodium ion channel 1.7 (hNav1.7) (Homo sapiens, UniProt Q15858)
# Experiment: Blocking effect against sodium ion channel Nav1.7, IonFlux16 auto patch clamp in hNav1.7 HEK293 cells
# Assay type: cell-based
# Conditions: hNav1.7 HEK293 cells; inhibition of peak current after 50 seconds treatment; eight concentrations; read-out: IC50
# Chain of human sodium ion channel 1.7 (hNav1.7) (Q15858 whole entry): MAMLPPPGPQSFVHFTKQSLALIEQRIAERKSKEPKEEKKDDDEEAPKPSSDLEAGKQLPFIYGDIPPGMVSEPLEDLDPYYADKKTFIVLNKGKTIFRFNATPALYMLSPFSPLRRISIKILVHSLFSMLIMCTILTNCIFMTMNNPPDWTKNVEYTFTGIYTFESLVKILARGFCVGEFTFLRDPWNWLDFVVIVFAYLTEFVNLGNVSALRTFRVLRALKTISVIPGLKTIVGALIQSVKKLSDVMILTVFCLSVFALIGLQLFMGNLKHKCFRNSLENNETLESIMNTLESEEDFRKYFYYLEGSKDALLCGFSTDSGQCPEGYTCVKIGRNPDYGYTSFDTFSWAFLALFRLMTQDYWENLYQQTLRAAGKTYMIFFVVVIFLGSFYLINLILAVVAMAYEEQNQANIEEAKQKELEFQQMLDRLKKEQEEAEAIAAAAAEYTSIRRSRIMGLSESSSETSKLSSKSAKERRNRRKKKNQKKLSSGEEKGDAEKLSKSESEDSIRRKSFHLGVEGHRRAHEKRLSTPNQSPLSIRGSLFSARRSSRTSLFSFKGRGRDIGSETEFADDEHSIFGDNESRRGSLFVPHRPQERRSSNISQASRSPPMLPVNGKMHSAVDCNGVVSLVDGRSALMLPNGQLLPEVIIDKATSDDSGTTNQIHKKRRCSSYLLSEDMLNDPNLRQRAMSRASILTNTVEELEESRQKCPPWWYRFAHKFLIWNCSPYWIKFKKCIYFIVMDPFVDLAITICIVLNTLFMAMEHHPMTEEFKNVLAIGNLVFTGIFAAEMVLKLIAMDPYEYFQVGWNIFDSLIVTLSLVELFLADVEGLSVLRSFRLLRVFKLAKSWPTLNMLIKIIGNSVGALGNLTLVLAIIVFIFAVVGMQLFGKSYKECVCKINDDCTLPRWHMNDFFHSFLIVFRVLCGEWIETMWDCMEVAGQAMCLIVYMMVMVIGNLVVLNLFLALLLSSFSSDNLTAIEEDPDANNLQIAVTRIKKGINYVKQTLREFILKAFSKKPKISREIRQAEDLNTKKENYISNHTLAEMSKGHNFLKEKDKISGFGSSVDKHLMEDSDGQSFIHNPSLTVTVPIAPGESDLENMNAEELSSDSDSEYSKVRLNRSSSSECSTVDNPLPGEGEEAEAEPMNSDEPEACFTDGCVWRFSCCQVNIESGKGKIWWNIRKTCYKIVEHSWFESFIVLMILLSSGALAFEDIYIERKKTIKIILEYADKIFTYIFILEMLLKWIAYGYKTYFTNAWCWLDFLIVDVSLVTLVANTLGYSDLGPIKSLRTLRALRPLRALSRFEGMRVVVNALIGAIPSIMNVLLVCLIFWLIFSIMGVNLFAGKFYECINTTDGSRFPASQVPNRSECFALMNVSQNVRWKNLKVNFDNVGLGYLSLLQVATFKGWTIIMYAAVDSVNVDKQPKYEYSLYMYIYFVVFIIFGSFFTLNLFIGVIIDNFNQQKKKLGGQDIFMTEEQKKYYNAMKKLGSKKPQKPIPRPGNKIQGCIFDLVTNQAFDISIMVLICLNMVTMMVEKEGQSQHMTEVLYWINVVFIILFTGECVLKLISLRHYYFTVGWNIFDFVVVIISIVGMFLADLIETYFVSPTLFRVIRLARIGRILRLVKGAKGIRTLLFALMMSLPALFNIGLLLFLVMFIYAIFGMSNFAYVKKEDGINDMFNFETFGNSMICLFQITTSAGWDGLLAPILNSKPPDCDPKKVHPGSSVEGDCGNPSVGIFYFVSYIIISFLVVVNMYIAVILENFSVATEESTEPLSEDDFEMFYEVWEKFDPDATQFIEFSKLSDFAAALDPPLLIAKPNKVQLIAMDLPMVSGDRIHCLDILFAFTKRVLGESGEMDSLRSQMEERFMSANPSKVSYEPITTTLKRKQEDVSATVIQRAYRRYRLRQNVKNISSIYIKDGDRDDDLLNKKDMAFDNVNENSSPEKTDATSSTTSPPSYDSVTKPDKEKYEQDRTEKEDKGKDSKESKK
row,IC50 [nM],Structure (SMILES)
1,74,"CS(=O)(=O)NC(=O)c1cc(Cl)c(-n2nc(Cl)c3cc(-c4cccc(C(F)(F)F)c4)ccc32)cc1F [Example 249, 5-chloro-4-(3-chloro-5-(3-(trifluoromethyl)phenyl)-1H-indazol-1-yl)-2-fluoro-N-(methylsulfonyl)benzamide]"
2,67,"CS(=O)(=O)NC(=O)c1cc(Cl)c(-n2nc(Cl)c3cc(-c4ccccc4C(F)(F)F)ccc32)cc1F [Example 250, 5-chloro-4-(3-chloro-5-(2-(trifluoromethyl)phenyl)-1H-indazol-1-yl)-2-fluoro-N-(methylsulfonyl)benzamide]"
3,113,"CS(=O)(=O)NC(=O)c1cc(Cl)c(-n2nc(Cl)c3cc(-c4ccc(C(F)(F)F)cc4)ccc32)cc1F [Example 251, 5-chloro-4-(3-chloro-5-(4-(trifluoromethyl)phenyl)-1H-indazol-1-yl)-2-fluoro-N-(methylsulfonyl)benzamide]"
4,240,"CS(=O)(=O)NC(=O)c1cc(Cl)c(-n2nc(Cl)c3cc(-c4ccccc4Cl)ccc32)cc1F [Example 252, 5-chloro-4-(3-chloro-5-(2-chlorophenyl)-1H-indazol-1-yl)-2-fluoro-N-(methylsulfonyl)benzamide]"
5,480,"Cc1cc(Cl)ccc1-c1ccc2c(c1)c(Cl)nn2-c1cc(F)c(C(=O)NS(C)(=O)=O)cc1Cl [Example 253, 5-chloro-4-(3-chloro-5-(4-chloro-2-methylphenyl)-1H-indazol-1-yl)-2-fluoro-N-(methylsulfonyl)benzamide]"
6,420,"CS(=O)(=O)NC(=O)c1cc(Cl)c(-n2nc(Cl)c3cc(-c4cc(Cl)ccc4F)ccc32)cc1F [Example 254, 5-chloro-4-(3-chloro-5-(5-chloro-2-fluorophenyl)-1H-indazol-1-yl)-2-fluoro-N-(methylsulfonyl)benzamide]"
7,830,"CS(=O)(=O)NC(=O)c1cc(Cl)c(-n2nc(Cl)c3cc(-c4ccc(Cl)cc4)ccc32)cc1F [Example 255, 5-chloro-4-(3-chloro-5-(4-chlorophenyl)-1H-indazol-1-yl)-2-fluoro-N-(methylsulfonyl)benzamide]"
8,3990,"Cn1nccc1-c1ccc2c(c1)c(Cl)nn2-c1cc(F)c(C(=O)NS(C)(=O)=O)cc1Cl [Example 256, 5-chloro-4-(3-chloro-5-(1-methyl-1H-pyrazol-5-yl)-1H-indazol-1-yl)-2-fluoro-N-(methylsulfonyl)benzamide]"
9,360,"CS(=O)(=O)NC(=O)c1cc(Cl)c(-n2cc(Cl)c3cc(-c4ccc(F)cc4)cnc32)cc1F [Example 257, 5-chloro-4-(3-chloro-5-(4-fluorophenyl)-1H-pyrrolo[2,3-b]pyridin-1-yl)-2-fluoro-N-(methylsulfonyl)benzamide]"
10,470,"COc1ccc(-c2cnc3c(c2)c(Cl)cn3-c2cc(F)c(C(=O)NS(C)(=O)=O)cc2Cl)cc1 [Example 260, 5-chloro-4-(3-chloro-5-(4-methoxyphenyl)-1H-pyrrolo[2,3-b]pyridin-1-yl)-2-fluoro-N-(methylsulfonyl)benzamide]"
11,180,"CS(=O)(=O)NC(=O)c1cc(Cl)c(-n2cc(Cl)c3cc(-c4ccc(C(F)(F)F)cc4)cnc32)cc1F [Example 261, 5-chloro-4-(3-chloro-5-(4-(trifluoromethyl)phenyl)-1H-pyrrolo[2,3-b]pyridin-1-yl)-2-fluoro-N-(methylsulfonyl)benzamide]"
12,210,"CS(=O)(=O)NC(=O)c1cc(Cl)c(-n2cc(Cl)c3cc(-c4cccc(F)c4)cnc32)cc1F [Example 262, 5-chloro-4-(3-chloro-5-(3-fluorophenyl)-1H-pyrrolo[2,3-b]pyridin-1-yl)-2-fluoro-N-(methylsulfonyl)benzamide]"
13,> 10000,"CS(=O)(=O)NC(=O)c1cc(Cl)c(-n2nc(Cl)c3ccc(-c4ccccc4)cc32)cc1F [Example 263, 5-chloro-4-(3-chloro-6-phenyl-1H-indazol-1-yl)-2-fluoro-N-(methylsulfonyl)benzamide]"
14,164,"CS(=O)(=O)NC(=O)c1cc(Cl)c(-n2nc(-c3ccccc3)c3cc(-c4ccccc4)ccc32)cc1F [Example 264, 5-chloro-4-(3,5-diphenyl-1H-indazol-1-yl)-2-fluoro-N-(methylsulfonyl)benzamide]"
15,300 to 1000,"CS(=O)(=O)NC(=O)c1cc(Cl)c(-n2cc(C(=O)O)c3cc(Cl)ccc32)cc1F [Example 265, 5-chloro-1-(2-chloro-5-fluoro-4-((methylsulfonyl)carbamoyl)phenyl)-1H-indole-3-carboxylic acid]"
16,133,"CS(=O)(=O)NC(=O)c1cc(Cl)c(-n2cc(Cl)c3cc(Cl)ccc32)cc1F [Example 266, 5-chloro-4-(3,5-dichloro-1H-indol-1-yl)-2-fluoro-N-(methylsulfonyl)benzamide]"
17,> 10000,"CS(=O)(=O)NC(=O)c1cc(Cl)c(-n2cc(Cl)c3c(Cl)c(O)ccc32)cc1F [Example 267, 5-chloro-4-(3,4-dichloro-5-hydroxy-1H-indol-1-yl)-2-fluoro-N-(methylsulfonyl)benzamide]"
18,608,"COc1ccc2c(c1)c(Cl)cn2-c1cc(F)c(C(=O)NS(C)(=O)=O)cc1Cl [Example 268, 5-chloro-4-(3-chloro-5-methoxy-1H-indol-1-yl)-2-fluoro-N-(methylsulfonyl)benzamide]"

row,IC50 [nM],Structure (SMILES)
1,142,"CS(=O)(=O)NC(=O)c1cc(Cl)c(-n2cc(Cl)c3cc(OCc4ccccc4)ccc32)cc1F [Example 269, 4-(5-(benzyloxy)-3-chloro-1H-indol-1-yl)-5-chloro-2-fluoro-N-(methylsulfonyl)benzamide]"
2,187,"CS(=O)(=O)NC(=O)c1cc(Cl)c(-n2cc(Cl)c3c(OCc4ccccc4)cccc32)cc1F [Example 270, 4-(4-(benzyloxy)-3-chloro-1H-indol-1-yl)-5-chloro-2-fluoro-N-(methylsulfonyl)benzamide]"
3,2130,"CS(=O)(=O)NC(=O)c1cc(Cl)c(-n2cc(Cl)c3ccc(OCc4ccccc4)cc32)cc1F [Example 271, 4-(6-(benzyloxy)-3-chloro-1H-indol-1-yl)-5-chloro-2-fluoro-N-(methylsulfonyl)benzamide]"
4,370,"CS(=O)(=O)NC(=O)c1cc(Cl)c(-n2cc(-c3ccc(Cl)cc3)c3cc(Cl)ccc32)cc1F [Example 272, 5-chloro-4-(5-chloro-3-(4-chlorophenyl)-1H-indol-1-yl)-2-fluoro-N-(methylsulfonyl)benzamide]"
5,180,"CS(=O)(=O)NC(=O)c1cc(Cl)c(-n2cc(-c3ccc(Cl)nc3)c3cc(Cl)ccc32)cc1F [Example 273, 5-chloro-4-(5-chloro-3-(6-chloropyridin-3-yl)-1H-indol-1-yl)-2-fluoro-N-(methylsulfonyl)benzamide]"
6,5960,"CS(=O)(=O)NC(=O)c1ccc(-n2cc(-c3ccc(Cl)cc3)c3cc(Cl)ccc32)nc1 [Example 274, 6-(5-chloro-3-(4-chlorophenyl)-1H-indol-1-yl)-N-(methylsulfonyl)nicotinamide]"
7,1230,"CS(=O)(=O)NC(=O)c1ccc(-n2cc(-c3ccc(F)cc3)c3cc(Cl)ccc32)nc1 [Example 275, 6-(5-chloro-3-(4-fluorophenyl)-1H-indol-1-yl)-N-(methylsulfonyl)nicotinamide]"
8,> 10000,"O=S(=O)(Nc1cscn1)c1cc(Cl)c(-n2nc(Cl)c3cc(-c4ccccc4)ccc32)cc1F [Example 276, 5-chloro-4-(3-chloro-5-phenyl-1H-indazol-1-yl)-2-fluoro-N-(thiazol-4-yl)benzenesulfonamide]"
9,330,"Cc1nn(-c2cc(F)c(S(=O)(=O)Nc3cscn3)cc2Cl)c2ccc(Cl)cc12 [Example 277, 5-chloro-4-(5-chloro-3-methyl-1H-indazol-1-yl)-2-fluoro-N-(thiazol-4-yl)benzenesulfonamide]"
10,8910,"N#Cc1cc(S(=O)(=O)Nc2cscn2)ccc1-n1nc(Cl)c2cc(C(F)(F)F)ccc21 [Example 278, 4-(3-chloro-5-(trifluoromethyl)-1H-indazol-1-yl)-3-cyano-N-(thiazol-4-yl)benzenesulfonamide]"
11,> 10000,"O=S(=O)(Nc1cscn1)c1cc(F)c(-n2nc(Cl)c3cc(C(F)(F)F)ccc32)cc1F [Example 279, 4-(3-chloro-5-(trifluoromethyl)-1H-indazol-1-yl)-2,5-difluoro-N-(thiazol-4-yl)benzenesulfonamide]"
12,1080,"O=S(=O)(Nc1cscn1)c1cc(Cl)c(-n2nc(Cl)c3cc(C(F)(F)F)ccc32)cc1F [Example 280, 5-chloro-4-(3-chloro-5-(trifluoromethyl)-1H-indazol-1-yl)-2-fluoro-N-(thiazol-4-yl)benzenesulfonamide]"
13,3000 to 10000,"O=S(=O)(Nc1ncns1)c1cc(F)c(-n2nc(Cl)c3cc(C(F)(F)F)ccc32)cc1F [Example 281, 4-(3-chloro-5-(trifluoromethyl)-1H-indazol-1-yl)-2,5-difluoro-N-(1,2,4-thiadiazol-5-yl)benzenesulfonamide]"
14,1650,"Cn1nccc1-c1nn(-c2cc(F)c(S(=O)(=O)Nc3cscn3)cc2Cl)c2ccc(Cl)cc12 [Example 282, 5-chloro-4-(5-chloro-3-(1-methyl-1H-pyrazol-5-yl)-1H-indazol-1-yl)-2-fluoro-N-(thiazol-4-yl)benzenesulfonamide]"
15,> 3000,"Cn1nccc1-c1nn(-c2cc(F)c(S(=O)(=O)Nc3ncns3)cc2Cl)c2ccc(Cl)cc12 [Example 283, 5-chloro-4-(5-chloro-3-(1-methyl-1H-pyrazol-5-yl)-1H-indazol-1-yl)-2-fluoro-N-(1,2,4-thiadiazol-5-yl)benzenesulfonamide]"
16,> 10000,"O=S(=O)(Nc1cscn1)c1cc(Cl)c(-n2nc(-c3cn[nH]c3)c3cc(Cl)ccc32)cc1F [Example 284, 5-chloro-4-(5-chloro-3-(1H-pyrazol-4-yl)-1H-indazol-1-yl)-2-fluoro-N-(thiazol-4-yl)benzenesulfonamide]"
17,> 10000,"Cn1nccc1-c1ccc2c(cnn2-c2cc(F)c(S(=O)(=O)Nc3cscn3)cc2Cl)c1 [Example 285, 5-chloro-2-fluoro-4-(5-(1-methyl-1H-pyrazol-5-yl)-1H-indazol-1-yl)-N-(thiazol-4-yl)benzenesulfonamide]"
